In ChEMBL document CHEMBL6177939, “The role of silicon in drug discovery: a review” (RSC Med Chem, 2024):
In brackets after ≈: the same amount, converted by molar mass.

Tests used:
[1] = test system: Mycobacterium tuberculosis; assay: Antimycobacterial activity against Mycobacterium tuberculosis H37Rv assessed as inhibition of bacterial growth incubated for 24 hrs by alamar blue assay; type: functional
MCF7 [2] = assay: Antiproliferative activity against human MCF7 cells assessed as reduction in cell growth incubated for 24 hrs; type: functional, cell-based; settings: MCF7, 24 h
NCI-H460 = assay: Antiproliferative activity against human NCI-H460 cells assessed as reduction in cell growth incubated for 24 hrs; type: functional, cell-based; settings: NCI-H460, 24 h
Caco-2 = assay: Antiproliferative activity against human Caco-2 cells assessed as reduction in cell growth incubated for 24 hrs; type: functional, cell-based; settings: Caco-2, 24 h
HT-29 [3] = assay: Antiproliferative activity against human HT-29 cells assessed as reduction in cell growth incubated for 24 hrs; type: functional, cell-based; settings: HT-29, 24 h
Histone deacetylase 4 = Histone deacetylase 4 (Homo sapiens, UniProt P56524); assay: Inhibition of human recombinant HDAC4 using Ac-Leu-Gly-Lys(Tfa)-AMC as substrate incubated for 30 mins by EnSpire plate reader analysis
Histone deacetylase 5 = Histone deacetylase 5 (Homo sapiens, UniProt Q9UQL6); assay: Inhibition of human recombinant HDAC5 using Ac-Leu-Gly-Lys(Tfa)-AMC as substrate incubated for 30 mins by EnSpire plate reader analysis
[4] = target: Protein deacetylase HDAC6 (Homo sapiens, UniProt Q9UBN7); assay: Inhibition of human recombinant HDAC6 using Ac-Leu-Gly-Lys(Ac)-AMC as substrate incubated for 30 mins by EnSpire plate reader analysis
Histone deacetylase 1 = Histone deacetylase 1 (Homo sapiens, UniProt Q13547); assay: Inhibition of human recombinant HDAC1 using Ac-Leu-Gly-Lys(Ac)-AMC as substrate incubated for 30 mins by EnSpire plate reader analysis
Histone deacetylase 2 = Histone deacetylase 2 (Homo sapiens, UniProt Q92769)
Pseudomonas aeruginosa [5] = assay: Antibacterial activity against Pseudomonas aeruginosa; type: functional
Escherichia coli [6] = assay: Antibacterial activity against Escherichia coli; type: functional
Staphylococcus aureus [7] = assay: Antibacterial activity against Staphylococcus aureus; type: functional
MG-22A [8] = assay: Cytotoxicity against mouse MG-22A cells assessed as reduction in cell growth by MTT assay; type: functional, cell-based
HT-1080 [9] = assay: Cytotoxicity against human HT-1080 cells assessed as reduction in cell growth by MTT assay; type: functional, cell-based
Aedes aegypti = assay: […] activity against Aedes aegypti assessed as protection time at 0.5 microg/cm; type: functional
HepG2 [10] = assay: Cytotoxicity against human HepG2 cells assessed as reduction in cell viability by XTT assay; type: functional, cell-based
MCF7 [11] = assay: Cytotoxicity against human MCF7 cells assessed as reduction in cell viability by XTT assay; type: functional, cell-based
Penicillium chrysogenum = assay: Antifungal activity against Penicillium chrysogenum ATCC 11709 assessed as reduction in fungal growth incubated for 24 hrs by CLSI micro-dilution method; type: functional
Fusarium solani = assay: Antifungal activity against Fusarium solani ATCC 20327 assessed as reduction in fungal growth incubated for 24 hrs by CLSI micro-dilution method; type: functional
Pseudomonas aeruginosa [12] = assay: Antibacterial activity against Pseudomonas aeruginosa ATCC 27853 assessed as reduction in bacterial growth incubated for 24 hrs by CLSI micro-dilution method; type: functional
Aspergillus niger = assay: Antifungal activity against Aspergillus niger ATCC 16888 assessed as reduction in fungal growth incubated for 24 hrs by broth micro-dilution method; type: functional
Bacillus sp. = assay: Antibacterial activity against Bacillus sp. ATCC 19986 assessed as reduction in bacterial growth incubated for 24 hrs by CLSI micro-dilution method; type: functional; settings: Bacillus sp. (in: firmicutes)
Mythimna separata = assay: Toxicity in Mythimna separata assessed as lethal dose; type: organism-based
Plutella xylostella = assay: Toxicity in Plutella xylostella assessed as lethal dose; type: organism-based
Pseudomonas aeruginosa [13] = assay: Antibacterial activity against Pseudomonas aeruginosa ATCC 27853 assessed as reduction in cell growth incubated for 18 hrs by two-fold serial dilution method; type: functional
Escherichia coli [14] = assay: Antibacterial activity against Escherichia coli ATCC 25922 assessed as reduction in cell growth incubated for 18 hrs by two-fold serial dilution method; type: functional
Acinetobacter baumannii = assay: Antibacterial activity against Acinetobacter baumannii ATCC 19606 assessed as reduction in cell growth incubated for 18 hrs by two-fold serial dilution method; type: functional
Staphylococcus aureus [15] = assay: Antibacterial activity against Staphylococcus aureus ATCC 25923 assessed as reduction in cell growth incubated for 18 hrs by two-fold serial dilution method; type: functional
BJAB = assay: Cytotoxicity against human BJAB cells assessed as lethal dose measured after 48 hrs; type: functional; settings: read-out: LD50 (the source's name)
Acetylcholinesterase = Acetylcholinesterase (Homo sapiens, UniProt P22303); assay: Inhibition of AChE (unknown origin) using acetylthiocholine iodide as substrate by Ellman's method
HT-1080 [16] = assay: Cytotoxicity against human HT-1080 cells assessed as reduction in cell growth by measuring lethal concentration for 72 hrs by MTT assay; type: functional
MG-22A [17] = assay: Cytotoxicity against mouse MG-22A cells assessed as reduction in cell growth by measuring lethal concentration for 72 hrs by MTT assay; type: functional
NIH3T3 = assay: Cytotoxicity against mouse NIH3T3 cells assessed as reduction in cell growth by measuring lethal concentration for 72 hrs by MTT assay; type: toxicity, cell-based; settings: nih3t3, 72 h
HepG2 [18] = assay: Antiproliferative activity against human HepG2 cells; type: functional, cell-based
A549 = assay: Antiproliferative activity against human A549 cells; type: functional, cell-based
HT-29 [19] = assay: Antiproliferative activity against human HT-29 cells assessed as reduction in cell viability incubated for 24 hrs by MTT assay; type: functional, cell-based; settings: HT-29, 24 h
HeLa = assay: Antiproliferative activity against human Hela cells assessed as reduction in cell viability incubated for 24 hrs by MTT assay; type: functional, cell-based
MDA-MB-435 = assay: Antiproliferative activity against human MDA-MB-435 cells assessed as reduction in cell viability incubated for 24 hrs by MTT assay; type: functional, cell-based; settings: MDA-MB-435, 24 h
HT-1080 [20] = assay: Cytotoxicity against human HT-1080 cells assessed as reduction in cell growth measured for 72 hrs by MTT assay; type: functional, cell-based; settings: HT-1080, 72 h
MG-22A [21] = assay: Cytotoxicity against mouse MG-22A cells assessed as reduction in cell growth measured for 72 hrs by MTT assay; type: functional, cell-based
Entamoeba histolytica = assay: Antiparasitic activity against Entamoeba histolytica HM-1:IMSS assessed as reduction in parasite growth incubated for 48 hrs by MTT assay; type: functional, organism-based
Giardia intestinalis = assay: Antiparasitic activity against Giardia intestinalis Portland 1 assessed as reduction in parasite growth incubated for 48 hrs by MTT assay; type: functional, organism-based; settings: Giardia duodenalis, Portland 1, 48 h

Chain of Protein deacetylase HDAC6 (Q9UBN7 whole entry): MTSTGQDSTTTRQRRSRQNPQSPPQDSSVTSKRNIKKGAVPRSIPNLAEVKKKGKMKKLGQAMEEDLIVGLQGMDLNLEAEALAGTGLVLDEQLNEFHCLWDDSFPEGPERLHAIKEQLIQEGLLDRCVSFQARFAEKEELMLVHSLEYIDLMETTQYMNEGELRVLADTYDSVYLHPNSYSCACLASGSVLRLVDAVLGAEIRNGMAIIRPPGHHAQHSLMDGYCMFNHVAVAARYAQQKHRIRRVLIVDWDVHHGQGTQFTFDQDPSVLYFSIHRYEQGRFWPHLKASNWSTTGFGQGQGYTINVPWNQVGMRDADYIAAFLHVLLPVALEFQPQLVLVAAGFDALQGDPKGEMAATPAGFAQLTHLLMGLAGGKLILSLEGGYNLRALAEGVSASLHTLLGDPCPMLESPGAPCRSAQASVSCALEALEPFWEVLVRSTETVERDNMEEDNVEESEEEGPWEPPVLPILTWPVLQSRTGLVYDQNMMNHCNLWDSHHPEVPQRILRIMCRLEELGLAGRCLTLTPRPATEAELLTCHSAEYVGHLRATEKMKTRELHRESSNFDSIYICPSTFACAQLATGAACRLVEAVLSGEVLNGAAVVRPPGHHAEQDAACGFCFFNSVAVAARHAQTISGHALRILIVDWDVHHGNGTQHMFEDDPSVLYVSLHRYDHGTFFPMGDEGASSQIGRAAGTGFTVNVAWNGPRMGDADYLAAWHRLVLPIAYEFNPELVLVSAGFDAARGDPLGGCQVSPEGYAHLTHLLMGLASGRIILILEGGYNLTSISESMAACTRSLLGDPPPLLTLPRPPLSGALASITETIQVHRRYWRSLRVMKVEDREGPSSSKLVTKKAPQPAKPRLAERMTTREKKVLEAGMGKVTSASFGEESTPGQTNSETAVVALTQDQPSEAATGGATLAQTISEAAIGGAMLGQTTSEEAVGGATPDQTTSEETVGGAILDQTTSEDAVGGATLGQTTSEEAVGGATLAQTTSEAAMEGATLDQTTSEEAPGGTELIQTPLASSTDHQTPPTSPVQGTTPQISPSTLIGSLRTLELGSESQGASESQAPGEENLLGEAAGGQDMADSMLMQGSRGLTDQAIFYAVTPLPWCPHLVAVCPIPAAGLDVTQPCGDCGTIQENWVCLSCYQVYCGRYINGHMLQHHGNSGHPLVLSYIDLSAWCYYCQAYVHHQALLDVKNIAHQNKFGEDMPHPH
Chain of Histone deacetylase 5 (Q9UQL6 whole entry): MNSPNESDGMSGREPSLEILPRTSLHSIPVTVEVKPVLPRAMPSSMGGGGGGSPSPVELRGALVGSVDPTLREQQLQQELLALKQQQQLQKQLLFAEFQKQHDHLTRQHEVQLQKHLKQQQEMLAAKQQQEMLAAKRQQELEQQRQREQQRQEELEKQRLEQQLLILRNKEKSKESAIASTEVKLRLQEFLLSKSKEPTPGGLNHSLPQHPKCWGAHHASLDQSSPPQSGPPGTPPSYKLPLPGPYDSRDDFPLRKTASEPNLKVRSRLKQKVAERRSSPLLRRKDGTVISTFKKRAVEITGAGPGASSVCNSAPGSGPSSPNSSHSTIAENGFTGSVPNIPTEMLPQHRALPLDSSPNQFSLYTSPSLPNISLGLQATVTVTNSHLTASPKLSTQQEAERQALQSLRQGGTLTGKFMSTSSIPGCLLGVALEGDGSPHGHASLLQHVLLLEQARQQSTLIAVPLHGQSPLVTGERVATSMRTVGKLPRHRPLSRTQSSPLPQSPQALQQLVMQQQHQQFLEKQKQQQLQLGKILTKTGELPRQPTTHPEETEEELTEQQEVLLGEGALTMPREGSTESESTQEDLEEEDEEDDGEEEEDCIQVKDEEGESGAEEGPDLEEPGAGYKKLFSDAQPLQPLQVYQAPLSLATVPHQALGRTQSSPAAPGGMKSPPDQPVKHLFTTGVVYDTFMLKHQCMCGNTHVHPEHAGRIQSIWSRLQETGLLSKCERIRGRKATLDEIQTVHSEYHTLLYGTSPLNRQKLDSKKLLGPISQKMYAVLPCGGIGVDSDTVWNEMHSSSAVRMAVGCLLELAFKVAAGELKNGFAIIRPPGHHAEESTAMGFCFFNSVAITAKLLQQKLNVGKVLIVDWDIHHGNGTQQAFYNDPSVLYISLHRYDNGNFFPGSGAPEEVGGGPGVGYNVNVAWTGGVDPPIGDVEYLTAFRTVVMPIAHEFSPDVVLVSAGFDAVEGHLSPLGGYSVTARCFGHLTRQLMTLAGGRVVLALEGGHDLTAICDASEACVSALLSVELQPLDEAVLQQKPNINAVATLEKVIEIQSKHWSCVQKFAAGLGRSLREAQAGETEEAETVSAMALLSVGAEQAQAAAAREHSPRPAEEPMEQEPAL
Chain of Histone deacetylase 2 (Q92769 whole entry): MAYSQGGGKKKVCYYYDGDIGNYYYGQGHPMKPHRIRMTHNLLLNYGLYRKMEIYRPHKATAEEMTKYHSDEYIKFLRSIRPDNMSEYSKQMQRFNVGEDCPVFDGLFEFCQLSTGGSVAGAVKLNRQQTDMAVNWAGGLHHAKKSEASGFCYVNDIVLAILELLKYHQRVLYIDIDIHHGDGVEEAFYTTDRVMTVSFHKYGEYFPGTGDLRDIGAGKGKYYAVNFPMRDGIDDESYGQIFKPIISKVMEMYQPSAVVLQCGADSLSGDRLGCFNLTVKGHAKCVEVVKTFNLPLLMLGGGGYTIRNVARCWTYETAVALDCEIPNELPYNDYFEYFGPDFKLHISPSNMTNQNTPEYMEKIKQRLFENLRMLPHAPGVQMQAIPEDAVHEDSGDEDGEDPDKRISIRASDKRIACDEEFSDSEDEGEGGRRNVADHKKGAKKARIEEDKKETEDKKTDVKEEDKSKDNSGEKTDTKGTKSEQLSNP
Chain of Histone deacetylase 4 (P56524 whole entry): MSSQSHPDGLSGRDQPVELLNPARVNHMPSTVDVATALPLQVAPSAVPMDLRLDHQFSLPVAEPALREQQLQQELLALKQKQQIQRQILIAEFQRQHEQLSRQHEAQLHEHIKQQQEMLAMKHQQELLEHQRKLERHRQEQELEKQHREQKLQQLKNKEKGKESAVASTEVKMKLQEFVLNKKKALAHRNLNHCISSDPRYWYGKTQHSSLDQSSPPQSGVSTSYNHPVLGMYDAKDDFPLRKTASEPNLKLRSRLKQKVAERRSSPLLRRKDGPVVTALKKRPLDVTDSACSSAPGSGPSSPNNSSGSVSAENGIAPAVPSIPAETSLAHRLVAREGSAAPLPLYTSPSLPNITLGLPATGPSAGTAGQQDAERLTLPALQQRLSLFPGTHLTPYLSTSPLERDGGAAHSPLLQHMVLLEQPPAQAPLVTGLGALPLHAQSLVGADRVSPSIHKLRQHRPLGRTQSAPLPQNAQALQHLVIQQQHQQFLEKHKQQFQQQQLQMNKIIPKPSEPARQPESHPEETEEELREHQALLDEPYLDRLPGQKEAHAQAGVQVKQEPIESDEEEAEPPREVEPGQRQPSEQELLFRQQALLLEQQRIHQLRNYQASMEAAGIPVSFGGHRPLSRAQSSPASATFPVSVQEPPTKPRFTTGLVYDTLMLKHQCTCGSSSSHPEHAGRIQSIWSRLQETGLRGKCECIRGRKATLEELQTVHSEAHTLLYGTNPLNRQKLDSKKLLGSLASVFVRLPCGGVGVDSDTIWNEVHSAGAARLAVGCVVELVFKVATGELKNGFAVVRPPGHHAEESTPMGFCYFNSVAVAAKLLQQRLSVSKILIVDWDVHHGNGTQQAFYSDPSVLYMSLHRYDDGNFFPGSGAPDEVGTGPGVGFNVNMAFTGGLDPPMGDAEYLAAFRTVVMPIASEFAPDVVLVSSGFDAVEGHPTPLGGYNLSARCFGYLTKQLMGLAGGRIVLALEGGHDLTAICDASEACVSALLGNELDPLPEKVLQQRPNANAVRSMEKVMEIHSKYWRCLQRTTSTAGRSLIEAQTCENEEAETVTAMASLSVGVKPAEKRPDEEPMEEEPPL
Chain of Acetylcholinesterase (P22303 whole entry): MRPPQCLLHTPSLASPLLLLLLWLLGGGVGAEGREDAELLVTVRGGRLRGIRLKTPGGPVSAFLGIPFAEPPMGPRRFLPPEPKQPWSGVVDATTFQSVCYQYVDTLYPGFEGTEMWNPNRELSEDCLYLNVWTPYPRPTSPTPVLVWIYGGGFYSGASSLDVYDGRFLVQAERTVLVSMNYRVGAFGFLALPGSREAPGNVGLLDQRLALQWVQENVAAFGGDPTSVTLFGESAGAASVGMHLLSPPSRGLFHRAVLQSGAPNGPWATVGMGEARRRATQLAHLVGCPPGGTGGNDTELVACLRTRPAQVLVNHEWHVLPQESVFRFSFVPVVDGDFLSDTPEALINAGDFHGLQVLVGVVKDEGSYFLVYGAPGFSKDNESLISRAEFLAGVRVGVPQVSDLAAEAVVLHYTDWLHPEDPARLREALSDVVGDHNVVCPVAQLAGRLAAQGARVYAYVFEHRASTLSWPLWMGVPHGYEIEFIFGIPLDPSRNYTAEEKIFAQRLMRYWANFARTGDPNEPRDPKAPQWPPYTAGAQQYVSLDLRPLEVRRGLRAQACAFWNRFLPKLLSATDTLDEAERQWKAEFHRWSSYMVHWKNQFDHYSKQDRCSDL
Chain of Histone deacetylase 1 (Q13547 whole entry): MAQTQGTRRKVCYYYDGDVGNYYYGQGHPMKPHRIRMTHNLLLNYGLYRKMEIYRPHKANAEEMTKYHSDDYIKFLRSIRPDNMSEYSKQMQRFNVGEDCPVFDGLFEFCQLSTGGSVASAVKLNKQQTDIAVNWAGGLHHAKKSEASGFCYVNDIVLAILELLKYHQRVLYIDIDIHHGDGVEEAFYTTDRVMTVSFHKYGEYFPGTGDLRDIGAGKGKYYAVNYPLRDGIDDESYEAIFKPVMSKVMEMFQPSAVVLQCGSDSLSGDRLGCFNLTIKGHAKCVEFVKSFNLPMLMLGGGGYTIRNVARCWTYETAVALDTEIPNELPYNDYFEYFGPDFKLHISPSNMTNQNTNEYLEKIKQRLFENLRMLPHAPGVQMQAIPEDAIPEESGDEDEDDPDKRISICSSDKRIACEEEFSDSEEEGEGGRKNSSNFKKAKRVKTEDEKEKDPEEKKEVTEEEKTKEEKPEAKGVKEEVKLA

Cc1c(CN2CCN(C)CC2)cc(-c2ccc(Cl)cc2)n1-c1ccc(Cl)cc1
MIC [1]: 1.7 µM

CC(C)OC(=O)/C(=N/NC(=O)c1ccc(CO[Si](C)(C)C(C)(C)C)o1)c1ccccc1
IC50 (MCF7 [2]): 3.5 µM | IC50 (NCI-H460): 3.6 µM | IC50 (Caco-2): 40.1 µM | IC50 (HT-29 [3]): 3.6 µM

C[Si](O)(O)CCCCCCC(=O)Nc1ccccc1
IC50 (Histone deacetylase 4): 0.6 µM | IC50 (Histone deacetylase 5): 0.6 µM | IC50 [4]: 0.6 µM | IC50 (Histone deacetylase 1): 0.6 µM | IC50 (Histone deacetylase 2): 0.6 µM

C[Si]1(C)CCN(C(=O)/C=C/C=C/c2ccc3c(c2)OCO3)CC1
MIC [1]: 50 mg/L

COc1cc(/C=N/CCC[Si](OC)(OC)OC)ccc1OCc1cn(CCOc2ccccc2[N+](=O)[O-])nn1
MIC (Pseudomonas aeruginosa [5]): 15 mg/L (≈ 26.8 µM) | MIC (Escherichia coli [6]): 15 mg/L (≈ 26.8 µM) | MIC (Staphylococcus aureus [7]): 1.87 mg/L (≈ 3.34 µM)

C[Si]1(C)CCN(C(=O)/C=C/c2ccc3c(c2)OCO3)CC1
MIC [1]: 50 mg/L

CCCC[Si](CC)(CCCC)OCC[N+](C)(C)C.[I-]
IC50 (MG-22A [8]): 1 mg/L | IC50 (HT-1080 [9]): 3 mg/L

C[Si]1(C)CCN(C(=O)C2=CCCCC2)CC1
Time (Aedes aegypti): 756 min

NCCC[Si-]123OCC[N+]1(CCO2)CCO3 (centres undefined)
IC50 (HepG2 [10]): 150 mg/L (≈ 646 µM) | IC50 (MCF7 [11]): 65 mg/L (≈ 280 µM) | MIC (Penicillium chrysogenum): 1.2 mg/L (≈ 5.16 µM) | MIC (Fusarium solani): 1.2 mg/L (≈ 5.16 µM) | MIC (Pseudomonas aeruginosa [12]): 1.2 mg/L (≈ 5.16 µM) | MIC (Aspergillus niger): 1.2 mg/L (≈ 5.16 µM) | MIC (Bacillus sp.): 1.2 mg/L (≈ 5.16 µM)

CCS(=O)(=O)c1cccnc1-c1nc2cc(S(=O)(=O)C(F)(F)F)ccc2o1
LC50 (Mythimna separata): 4.68 mg/L (≈ 11.1 µM) | LC50 (Plutella xylostella): 0.21 mg/L (≈ 0.5 µM)

O=C1c2ccccc2C(=O)N1CCC[Si-]123OCC[N+]1(CCO2)CCO3 (centres undefined)
MIC (Pseudomonas aeruginosa [13]): 0.2 mg/L (≈ 0.552 µM) | MIC (Escherichia coli [14]): 0.2 mg/L (≈ 0.552 µM) | MIC (Acinetobacter baumannii): 0.2 mg/L (≈ 0.552 µM) | MIC (Staphylococcus aureus [15]): 0.2 mg/L (≈ 0.552 µM)

CC(C)C(C)(C)[Si](C)(C)OC[C@H]1C[C@@H](n2cc(Br)c(=O)[nH]c2=O)C=C1CO
CC50 (BJAB): 9 µM

C[Si]1(Cl)C=CC(=O)C1=P(c1ccccc1)(c1ccccc1)c1ccccc1 (centres undefined)
IC50 (Acetylcholinesterase): 0.113 µM

CCCCCCCCCOCCc1sc[n+](CCC[Si](C)(C)C)c1C.[I-]
LC50 (HT-1080 [16]): 0.1 mg/L | LC50 (MG-22A [17]): 0.1 mg/L | LC50 (NIH3T3): 0.1 mg/L

CCN(CC)c1ccc(/C=N/CCC[Si](OC)(OC)OC)c(OCc2cn(CCOc3ccccc3[N+](=O)[O-])nn2)c1
MIC (Pseudomonas aeruginosa [5]): 6.3 mg/L (≈ 10.5 µM) | MIC (Escherichia coli [6]): 6.3 mg/L (≈ 10.5 µM) | MIC (Staphylococcus aureus [7]): 0.195 mg/L (≈ 0.325 µM)

COc1ccc([Si](C)(C)[C@@H]2[C@@H](CCn3cc(CCO)nn3)O[C@]3(C(=O)N4c5c(ccc(OC)c53)C(C)=CC4(C)C)[C@H]2C)cc1
EC50 (HepG2 [18]): 32.5 µM | EC50 (A549): 42.8 µM

CC1C[N+]23CC(C)O[Si-]2(CCC/N=C/c2cccc([N+](=O)[O-])c2)(O1)OC(C)C3 (centres undefined)
IC50 (HT-29 [19]): 12.3 mg/L (≈ 30.2 µM) | IC50 (HeLa): 11.8 mg/L (≈ 29 µM) | IC50 (MDA-MB-435): 12.5 mg/L (≈ 30.7 µM)

CCCCCCCCCC[Si](C)(CCCCCCCCCC)OCC[N+](C)(C)C.[I-]
IC50 (HT-1080 [20]): 0.3 mg/L | IC50 (MG-22A [21]): 1 mg/L

CC1C[N+]23CC(C)O[Si-]2(CCCNCC/N=C/c2ccc4ccc5cccc6ccc2c4c56)(O1)OC(C)C3 (centres undefined)
IC50 (Entamoeba histolytica): 1.14 µM | IC50 (Giardia intestinalis): 44.6 µM

CC1(C)CCN(C(=O)C2=CCCCC2)CC1
Time (Aedes aegypti): 520 min
